Values of other authors in article PMC9528030 (ACS chemical biology, 2022).

System: SARS-CoV-2
Conditions: read-out: EC50 in a CPE assay; cited from earlier work

In the case of `C[C@@H](OC(C)(C)C)[C@H](NC(=O)OCc1ccccc1)C(=O)N[C@@H](CC1CCCCC1)C(=O)N[C@H](C=O)C[C@@H]1CCNC1=O` [MPI8], the EC50 is listed as 30 nM.
